Test results taken from article PMC9030254, “Target Hopping from Protein Kinases to PXR: Identification of Small-Molecule Protein Kinase Inhibitors as Selective Modulators of Pregnane X Receptor from TüKIC Library” (Cells, 2022).

Columns and labels:
Assay in all cases: Kinase profiling
Type in all cases: biochemical
AXL = target: T1, AXL (Homo sapiens, UniProt P30530)
T1 construct: purchased ProQinase (Freiburg, Germany)
T1 sequence (P30530 26-894): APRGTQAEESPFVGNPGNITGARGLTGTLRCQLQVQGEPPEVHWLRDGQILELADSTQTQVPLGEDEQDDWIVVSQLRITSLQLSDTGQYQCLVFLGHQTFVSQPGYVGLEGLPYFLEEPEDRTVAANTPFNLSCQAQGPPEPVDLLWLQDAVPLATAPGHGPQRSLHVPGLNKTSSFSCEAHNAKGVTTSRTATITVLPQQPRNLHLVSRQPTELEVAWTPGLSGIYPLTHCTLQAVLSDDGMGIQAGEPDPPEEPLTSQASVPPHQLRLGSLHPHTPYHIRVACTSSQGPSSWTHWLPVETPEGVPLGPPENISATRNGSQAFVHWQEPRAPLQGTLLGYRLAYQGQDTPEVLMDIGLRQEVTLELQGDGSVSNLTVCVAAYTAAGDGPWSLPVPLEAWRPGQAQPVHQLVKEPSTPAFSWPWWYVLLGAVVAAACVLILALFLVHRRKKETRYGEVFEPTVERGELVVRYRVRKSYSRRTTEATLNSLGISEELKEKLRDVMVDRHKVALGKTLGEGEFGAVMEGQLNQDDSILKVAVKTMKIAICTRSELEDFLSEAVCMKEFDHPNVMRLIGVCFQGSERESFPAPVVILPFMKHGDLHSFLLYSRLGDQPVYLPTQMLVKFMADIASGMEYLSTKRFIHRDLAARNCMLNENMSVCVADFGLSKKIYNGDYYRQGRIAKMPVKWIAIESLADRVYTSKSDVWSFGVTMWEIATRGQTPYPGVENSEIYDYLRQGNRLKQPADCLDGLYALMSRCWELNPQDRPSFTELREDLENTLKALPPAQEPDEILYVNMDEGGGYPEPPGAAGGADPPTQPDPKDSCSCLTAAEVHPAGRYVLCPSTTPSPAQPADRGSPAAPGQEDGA
Protocol: (§1) The analysis was performed by ProQinase (Freiburg, Germany).

BMPR1B = target: T2, BMPR1B (Homo sapiens, UniProt O00238)
T2 construct: purchased ProQinase (Freiburg, Germany)
T2 sequence (O00238 14-502): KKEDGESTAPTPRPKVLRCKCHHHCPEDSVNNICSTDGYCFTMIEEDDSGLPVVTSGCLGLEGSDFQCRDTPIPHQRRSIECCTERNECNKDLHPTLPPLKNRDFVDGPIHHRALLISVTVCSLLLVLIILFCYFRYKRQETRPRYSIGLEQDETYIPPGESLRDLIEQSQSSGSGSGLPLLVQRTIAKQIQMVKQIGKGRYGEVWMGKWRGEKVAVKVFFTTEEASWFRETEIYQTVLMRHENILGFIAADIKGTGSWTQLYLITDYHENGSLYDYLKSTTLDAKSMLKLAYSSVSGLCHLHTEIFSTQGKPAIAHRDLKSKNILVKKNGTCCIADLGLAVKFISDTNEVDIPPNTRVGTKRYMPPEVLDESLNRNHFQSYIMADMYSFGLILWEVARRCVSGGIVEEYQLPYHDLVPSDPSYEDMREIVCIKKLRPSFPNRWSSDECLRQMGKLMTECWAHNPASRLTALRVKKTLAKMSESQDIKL
Protocol: as §1

ITK = target: T3, ITK (Homo sapiens, UniProt Q08881)
T3 construct: purchased ProQinase (Freiburg, Germany)
T3 sequence (Q08881 1-620): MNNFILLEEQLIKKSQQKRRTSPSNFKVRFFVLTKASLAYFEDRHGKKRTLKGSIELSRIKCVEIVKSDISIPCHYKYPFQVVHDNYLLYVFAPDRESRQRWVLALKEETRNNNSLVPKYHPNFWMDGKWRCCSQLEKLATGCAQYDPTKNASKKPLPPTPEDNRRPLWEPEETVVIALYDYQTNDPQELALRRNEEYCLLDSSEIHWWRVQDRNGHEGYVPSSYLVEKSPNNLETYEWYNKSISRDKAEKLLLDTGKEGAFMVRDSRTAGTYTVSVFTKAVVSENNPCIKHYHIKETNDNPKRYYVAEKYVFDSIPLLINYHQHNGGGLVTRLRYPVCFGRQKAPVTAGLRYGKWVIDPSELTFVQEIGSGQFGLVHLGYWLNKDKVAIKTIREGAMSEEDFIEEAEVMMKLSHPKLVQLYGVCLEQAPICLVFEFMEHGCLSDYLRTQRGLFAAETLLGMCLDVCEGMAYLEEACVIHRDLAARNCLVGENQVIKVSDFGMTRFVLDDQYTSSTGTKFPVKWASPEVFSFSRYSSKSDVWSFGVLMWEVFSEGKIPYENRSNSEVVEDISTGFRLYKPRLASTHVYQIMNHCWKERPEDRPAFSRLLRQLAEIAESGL
Protocol: as §1

PAK6 = target: T4, PAK6 (Homo sapiens, UniProt Q9NQU5)
T4 construct: purchased ProQinase (Freiburg, Germany)
T4 sequence (Q9NQU5 whole entry): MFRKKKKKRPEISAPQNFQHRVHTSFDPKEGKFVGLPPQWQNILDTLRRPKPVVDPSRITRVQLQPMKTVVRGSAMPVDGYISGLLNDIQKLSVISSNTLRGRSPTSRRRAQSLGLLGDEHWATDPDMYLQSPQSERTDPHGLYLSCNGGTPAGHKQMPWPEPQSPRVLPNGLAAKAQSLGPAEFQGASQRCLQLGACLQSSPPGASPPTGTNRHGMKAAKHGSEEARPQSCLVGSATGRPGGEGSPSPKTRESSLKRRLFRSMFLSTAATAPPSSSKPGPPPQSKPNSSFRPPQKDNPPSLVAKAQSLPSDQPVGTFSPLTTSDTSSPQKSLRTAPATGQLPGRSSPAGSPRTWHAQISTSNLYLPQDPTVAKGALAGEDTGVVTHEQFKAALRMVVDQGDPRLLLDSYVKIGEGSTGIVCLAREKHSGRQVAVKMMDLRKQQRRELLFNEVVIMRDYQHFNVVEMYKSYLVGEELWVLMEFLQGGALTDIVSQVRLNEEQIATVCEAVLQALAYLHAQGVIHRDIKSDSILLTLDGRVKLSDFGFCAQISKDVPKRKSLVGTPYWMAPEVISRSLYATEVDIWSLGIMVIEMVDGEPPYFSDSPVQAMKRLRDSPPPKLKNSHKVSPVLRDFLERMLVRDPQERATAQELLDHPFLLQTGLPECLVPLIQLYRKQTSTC
Protocol: as §1

PKN3 = target: T5, PKN3 (Homo sapiens, UniProt Q6P5Z2)
T5 construct: purchased ProQinase (Freiburg, Germany)
T5 sequence (Q6P5Z2 whole entry): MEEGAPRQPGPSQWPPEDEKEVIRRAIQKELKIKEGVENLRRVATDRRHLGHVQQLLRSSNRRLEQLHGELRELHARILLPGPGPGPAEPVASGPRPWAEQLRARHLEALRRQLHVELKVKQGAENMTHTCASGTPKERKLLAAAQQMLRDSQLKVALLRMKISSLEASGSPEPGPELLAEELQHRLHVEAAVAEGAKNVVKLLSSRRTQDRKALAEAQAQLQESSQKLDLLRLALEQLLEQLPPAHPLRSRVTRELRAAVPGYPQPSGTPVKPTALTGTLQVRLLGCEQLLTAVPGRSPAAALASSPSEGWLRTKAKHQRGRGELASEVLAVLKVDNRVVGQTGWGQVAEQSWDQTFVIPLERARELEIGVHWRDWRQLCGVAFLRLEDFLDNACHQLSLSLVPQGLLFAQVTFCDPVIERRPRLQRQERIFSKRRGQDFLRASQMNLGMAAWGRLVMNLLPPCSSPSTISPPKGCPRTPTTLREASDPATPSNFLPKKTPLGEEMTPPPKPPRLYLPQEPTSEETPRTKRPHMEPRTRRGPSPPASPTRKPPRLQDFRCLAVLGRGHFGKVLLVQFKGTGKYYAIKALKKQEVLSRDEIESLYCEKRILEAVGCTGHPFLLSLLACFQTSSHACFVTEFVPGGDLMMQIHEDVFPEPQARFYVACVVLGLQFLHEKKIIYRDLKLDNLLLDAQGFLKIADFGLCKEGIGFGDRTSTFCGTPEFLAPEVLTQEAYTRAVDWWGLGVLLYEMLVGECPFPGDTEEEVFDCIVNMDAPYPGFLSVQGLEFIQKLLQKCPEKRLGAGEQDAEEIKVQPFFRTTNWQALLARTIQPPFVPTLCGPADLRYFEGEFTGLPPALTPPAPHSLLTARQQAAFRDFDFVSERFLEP
Protocol: as §1

ROCK2 = target: T6, ROCK2 (Homo sapiens, UniProt O75116)
T6 construct: purchased ProQinase (Freiburg, Germany)
T6 sequence (O75116 whole entry): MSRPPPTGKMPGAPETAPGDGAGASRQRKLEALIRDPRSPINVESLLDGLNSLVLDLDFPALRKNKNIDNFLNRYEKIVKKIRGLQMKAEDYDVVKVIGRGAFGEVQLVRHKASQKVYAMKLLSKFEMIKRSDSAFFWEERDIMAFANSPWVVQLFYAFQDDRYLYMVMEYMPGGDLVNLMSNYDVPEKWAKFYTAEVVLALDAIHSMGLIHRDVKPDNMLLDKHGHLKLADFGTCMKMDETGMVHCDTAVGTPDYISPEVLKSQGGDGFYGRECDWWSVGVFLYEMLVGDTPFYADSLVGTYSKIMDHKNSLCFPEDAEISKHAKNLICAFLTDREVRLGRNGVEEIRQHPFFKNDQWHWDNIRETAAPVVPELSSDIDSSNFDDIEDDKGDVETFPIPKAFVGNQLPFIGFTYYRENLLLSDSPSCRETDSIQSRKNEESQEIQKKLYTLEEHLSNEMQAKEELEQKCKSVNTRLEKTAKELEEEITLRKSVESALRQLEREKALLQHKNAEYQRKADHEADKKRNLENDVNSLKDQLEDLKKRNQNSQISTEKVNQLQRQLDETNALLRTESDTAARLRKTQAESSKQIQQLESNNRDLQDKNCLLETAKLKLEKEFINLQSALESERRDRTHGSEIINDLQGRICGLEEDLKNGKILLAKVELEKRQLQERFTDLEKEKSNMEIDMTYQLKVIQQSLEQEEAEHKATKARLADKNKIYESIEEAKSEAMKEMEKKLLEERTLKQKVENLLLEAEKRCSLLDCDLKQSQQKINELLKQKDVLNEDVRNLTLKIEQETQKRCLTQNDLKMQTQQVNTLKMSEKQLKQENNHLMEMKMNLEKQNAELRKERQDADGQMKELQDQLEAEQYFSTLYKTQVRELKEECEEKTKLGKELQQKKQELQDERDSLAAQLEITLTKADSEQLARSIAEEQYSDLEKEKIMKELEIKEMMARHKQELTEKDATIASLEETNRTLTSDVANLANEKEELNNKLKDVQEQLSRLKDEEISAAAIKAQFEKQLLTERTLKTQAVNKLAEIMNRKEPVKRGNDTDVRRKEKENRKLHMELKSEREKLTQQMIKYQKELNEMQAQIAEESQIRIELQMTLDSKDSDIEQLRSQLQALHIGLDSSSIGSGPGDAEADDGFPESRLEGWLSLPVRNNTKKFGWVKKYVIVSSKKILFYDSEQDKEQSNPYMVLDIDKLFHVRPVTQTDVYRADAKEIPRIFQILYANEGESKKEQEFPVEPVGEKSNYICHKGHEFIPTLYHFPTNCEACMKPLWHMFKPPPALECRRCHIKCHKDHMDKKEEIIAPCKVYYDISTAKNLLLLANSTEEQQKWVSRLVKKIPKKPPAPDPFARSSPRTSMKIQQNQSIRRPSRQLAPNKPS
Protocol: as §1

RPS6KA1 = target: T7, RPS6KA1 (Homo sapiens, UniProt Q15418)
T7 construct: purchased ProQinase (Freiburg, Germany)
T7 sequence (Q15418 whole entry): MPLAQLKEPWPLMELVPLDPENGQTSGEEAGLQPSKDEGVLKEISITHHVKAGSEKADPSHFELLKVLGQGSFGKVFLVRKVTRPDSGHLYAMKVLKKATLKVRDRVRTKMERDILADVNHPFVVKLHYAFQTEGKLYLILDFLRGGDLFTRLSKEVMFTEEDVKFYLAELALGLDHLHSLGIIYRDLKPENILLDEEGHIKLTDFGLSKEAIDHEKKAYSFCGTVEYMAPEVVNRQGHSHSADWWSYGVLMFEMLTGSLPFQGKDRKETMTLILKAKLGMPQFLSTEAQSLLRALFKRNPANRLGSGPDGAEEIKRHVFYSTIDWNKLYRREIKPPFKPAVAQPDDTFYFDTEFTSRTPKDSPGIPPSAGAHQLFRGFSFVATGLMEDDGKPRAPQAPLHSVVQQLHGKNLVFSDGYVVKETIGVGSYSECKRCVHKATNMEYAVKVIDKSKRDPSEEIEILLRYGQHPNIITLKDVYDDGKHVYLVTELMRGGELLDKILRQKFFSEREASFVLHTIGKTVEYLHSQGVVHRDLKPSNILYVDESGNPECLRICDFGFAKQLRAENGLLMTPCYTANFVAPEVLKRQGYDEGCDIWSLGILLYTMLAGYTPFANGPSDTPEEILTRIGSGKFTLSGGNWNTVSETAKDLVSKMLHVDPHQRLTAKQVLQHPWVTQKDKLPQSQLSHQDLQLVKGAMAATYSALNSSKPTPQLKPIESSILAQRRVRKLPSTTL
Protocol: as §1

ULK2 = target: T8, ULK2 (Homo sapiens, UniProt Q8IYT8)
T8 construct: purchased ProQinase (Freiburg, Germany)
T8 sequence (Q8IYT8 1-1036): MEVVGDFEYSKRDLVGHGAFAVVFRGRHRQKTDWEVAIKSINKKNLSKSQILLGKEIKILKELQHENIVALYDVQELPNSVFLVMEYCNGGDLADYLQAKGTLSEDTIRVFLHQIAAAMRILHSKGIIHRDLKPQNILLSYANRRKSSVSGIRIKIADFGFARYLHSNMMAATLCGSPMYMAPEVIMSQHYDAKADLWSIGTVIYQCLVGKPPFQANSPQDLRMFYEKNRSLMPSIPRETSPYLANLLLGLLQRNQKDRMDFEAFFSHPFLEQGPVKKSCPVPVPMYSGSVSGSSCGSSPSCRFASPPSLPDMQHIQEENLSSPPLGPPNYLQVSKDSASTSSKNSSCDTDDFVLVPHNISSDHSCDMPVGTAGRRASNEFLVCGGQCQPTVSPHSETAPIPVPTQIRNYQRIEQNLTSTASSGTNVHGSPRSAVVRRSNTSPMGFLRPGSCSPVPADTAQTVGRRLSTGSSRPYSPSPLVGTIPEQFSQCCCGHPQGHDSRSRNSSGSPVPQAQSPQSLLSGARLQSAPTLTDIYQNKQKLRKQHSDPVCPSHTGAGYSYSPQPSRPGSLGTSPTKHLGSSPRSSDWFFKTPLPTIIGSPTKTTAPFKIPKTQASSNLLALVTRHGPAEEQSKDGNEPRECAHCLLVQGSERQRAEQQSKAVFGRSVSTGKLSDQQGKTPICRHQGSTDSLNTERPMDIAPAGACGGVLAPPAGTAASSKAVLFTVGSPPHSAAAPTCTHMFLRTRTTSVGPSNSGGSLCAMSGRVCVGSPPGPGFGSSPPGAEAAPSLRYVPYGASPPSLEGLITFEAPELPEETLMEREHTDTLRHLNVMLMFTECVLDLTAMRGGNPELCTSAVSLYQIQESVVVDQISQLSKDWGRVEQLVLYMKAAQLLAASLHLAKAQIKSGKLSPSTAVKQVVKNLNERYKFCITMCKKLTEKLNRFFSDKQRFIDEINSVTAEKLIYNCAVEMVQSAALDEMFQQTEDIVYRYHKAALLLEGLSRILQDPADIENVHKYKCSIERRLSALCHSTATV
Protocol: as §1

`O=C(Cc1ccccc1)Nc1ccc(F)c(Nc2ccc3c(c2)CCCCC3=O)c1` [Compound 100] was tested, and the Residual activity (AXL; 1.0E-05 M) was 99 % of control, the Residual activity (AXL; 1.0E-06 M) was 103 % of control and the Residual activity (BMPR1B; 1.0E-05 M) was 121 % of control. For the same molecule, the Residual activity (BMPR1B; 1.0E-06 M) was 102 % of control, the Residual activity (ITK; 1.0E-05 M) was 75 % of control and the Residual activity (ITK; 1.0E-06 M) was 94 % of control. The Residual activity (PAK6; 1.0E-05 M) was 98 % of control, the Residual activity (PAK6; 1.0E-06 M) was 101 % of control and the Residual activity (PKN3; 1.0E-05 M) was 101 % of control. The Residual activity (PKN3; 1.0E-06 M) was 104 % of control, the Residual activity (ROCK2; 1.0E-05 M) was 102 % of control and the Residual activity (ROCK2; 1.0E-06 M) was 101 % of control. The Residual activity (RPS6KA1; 1.0E-05 M) was 96 % of control, the Residual activity (RPS6KA1; 1.0E-06 M) was 110 % of control and the Residual activity (ULK2; 1.0E-05 M) was 103 % of control. The Residual activity (ULK2; 1.0E-06 M) was 113 % of control.
With `O=C(Nc1ccc(F)c(Nc2ccc3c(c2)CCCCC3=O)c1)c1cccc(F)c1` [Compound 109] the Residual activity (AXL; 1.0E-05 M) was 93 % of control, the Residual activity (AXL; 1.0E-06 M) was 98 % of control and the Residual activity (BMPR1B; 1.0E-05 M) was 128 % of control. The Residual activity (BMPR1B; 1.0E-06 M) was 101 % of control, the Residual activity (ITK; 1.0E-05 M) was 82 % of control and the Residual activity (ITK; 1.0E-06 M) was 93 % of control. For the same molecule, the Residual activity (PAK6; 1.0E-05 M) was 90 % of control, the Residual activity (PAK6; 1.0E-06 M) was 99 % of control and the Residual activity (PKN3; 1.0E-05 M) was 92 % of control. The Residual activity (PKN3; 1.0E-06 M) was 91 % of control, the Residual activity (ROCK2; 1.0E-05 M) was 98 % of control and the Residual activity (ROCK2; 1.0E-06 M) was 103 % of control. For the same molecule, the Residual activity (RPS6KA1; 1.0E-05 M) was 95 % of control, the Residual activity (RPS6KA1; 1.0E-06 M) was 96 % of control and the Residual activity (ULK2; 1.0E-05 M) was 113 % of control. For the same molecule, the Residual activity (ULK2; 1.0E-06 M) was 99 % of control.
